Columns and labels:
Human δ-opioid (DOP) = biological target: T1, Human δ-opioid (DOP) (Homo sapiens, UniProt P41143); test: Radioligand binding, human δ-opioid (DOP) membranes, FlashPlate, [3H]-Bremazocine; settings: compound at 10 μM, [3H]-Bremazocine
T1 construct: purchased Perkin Elmer Biosignal
In short: (§1)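 Cloned human receptor membranes were coated onto FlashPlate wells and incubated with radioligand and compound (added from a 0.5 mM DMSO daughter plate) for 1 hour at room temperature in the dark. Scintillation counting gave percent inhibition, with DMSO defining total and reference ligand defining non-specific binding.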

Human κ-Opioid (KOP) = biological target: T2, Human κ-Opioid (KOP) (Homo sapiens, UniProt P41145); test: Radioligand binding, human κ-opioid (KOP) membranes, filtration, [3H]-Diprenorphine; settings: compound at 10 μM, [3H]-Diprenorphine
T2 construct: purchased Perkin Elmer Biosignal
In short: (§2)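 Percent inhibition of radioligand binding measured on recombinant human membranes: NK1 with [125I]-Substance P, KOP with [3H]-Diprenorphine. Incubation 1 h at room temperature, then harvest onto 0.3% PEI-soaked filters, cold Tris-HCl pH 7.4 washes and scintillation counting; non-specific binding from reference ligand wells.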

Human Melanocortin (MC3) = biological target: T3, Human Melanocortin (MC3) (Homo sapiens, UniProt P41968); test: Radioligand binding, human melanocortin MC3 membranes, FlashPlate, [125I]-NDP-αMSH; settings: compound at 10 μM, [125I]-NDP-αMSH
T3 construct: purchased Perkin Elmer Biosignal
In short: as §1

Human Melanocortin (MC4) = biological target: T4, Human Melanocortin (MC4) (Homo sapiens, UniProt P32245); test: Radioligand binding, human melanocortin MC4 membranes, FlashPlate, [125I]-NDP-αMSH; settings: compound at 10 μM, [125I]-NDP-αMSH
T4 construct: purchased Perkin Elmer Biosignal
In short: as §1

Human melanocortin (MC5) = biological target: T5, Human melanocortin (MC5) (Homo sapiens, UniProt P33032); test: Radioligand binding, human melanocortin MC5 membranes, FlashPlate, [125I]-NDP-αMSH; settings: compound at 10 μM, [125I]-NDP-αMSH
T5 construct: purchased Perkin Elmer Biosignal
In short: as §1

[1] = biological target: T6, Human melanin-concentrating hormone (MCH1) (Homo sapiens, UniProt Q99705); test: Radioligand binding, human melanin-concentrating hormone MCH1 membranes, FlashPlate, [125I]-S36057; settings: compound at 10 μM
T6 construct: purchased Perkin Elmer Biosignal
In short: as §1

Human μ-opioid (MOP) = biological target: T7, Human μ-opioid (MOP) (Homo sapiens, UniProt P35372); test: Radioligand binding, human μ-opioid (MOP) membranes, FlashPlate, [3H]-Naloxone; settings: compound at 10 μM, [3H]-Naloxone
T7 construct: purchased Perkin Elmer Biosignal
In short: as §1

Human neurokinin (NK1) = biological target: T8, Human neurokinin (NK1) (Homo sapiens, UniProt P25103); test: Radioligand binding, human neurokinin NK1 membranes, filtration, [125I]-Substance P; settings: compound at 10 μM, [125I]-Substance P
T8 construct: purchased Perkin Elmer Biosignal
In short: as §2

[2] = biological target: T9, Human neuropeptide Y (NPY-Y1) (Homo sapiens, UniProt P25929); test: Radioligand binding, human neuropeptide Y NPY-Y1 membranes, FlashPlate, [125I]-PYY; settings: compound at 10 μM, [125I]-PYY
T9 construct: purchased Perkin Elmer Biosignal
T9 sequence (P25929 1-384): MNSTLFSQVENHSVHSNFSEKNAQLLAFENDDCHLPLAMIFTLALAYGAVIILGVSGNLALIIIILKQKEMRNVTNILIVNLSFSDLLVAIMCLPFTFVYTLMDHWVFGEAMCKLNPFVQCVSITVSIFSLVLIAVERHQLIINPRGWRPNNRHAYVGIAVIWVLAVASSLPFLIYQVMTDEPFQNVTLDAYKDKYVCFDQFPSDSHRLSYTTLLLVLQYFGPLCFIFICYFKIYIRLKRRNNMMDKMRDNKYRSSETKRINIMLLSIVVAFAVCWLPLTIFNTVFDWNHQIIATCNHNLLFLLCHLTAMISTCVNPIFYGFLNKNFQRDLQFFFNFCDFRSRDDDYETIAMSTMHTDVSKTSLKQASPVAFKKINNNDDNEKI
In short: as §1

Human opioid (ORL1) = biological target: T10, Human opioid (ORL1) (Homo sapiens, UniProt P41146); test: Radioligand binding, human opioid ORL1 membranes, FlashPlate, [125I]-Nociceptin; settings: compound at 10 μM, [125I]-Nociceptin
T10 construct: purchased Perkin Elmer Biosignal
In short: as §1

Mouse urotensin (mUR2) = biological target: T11, Mouse urotensin (mUR2) (Mus musculus, UniProt Q8VIH9); test: Radioligand binding, mouse urotensin mUR2 membranes, FlashPlate, [125I]-Urotensin II; settings: compound at 10 μM, [125I]-Urotensin II
T11 construct: purchased Perkin Elmer Biosignal
T11 sequence (Q8VIH9 1-385): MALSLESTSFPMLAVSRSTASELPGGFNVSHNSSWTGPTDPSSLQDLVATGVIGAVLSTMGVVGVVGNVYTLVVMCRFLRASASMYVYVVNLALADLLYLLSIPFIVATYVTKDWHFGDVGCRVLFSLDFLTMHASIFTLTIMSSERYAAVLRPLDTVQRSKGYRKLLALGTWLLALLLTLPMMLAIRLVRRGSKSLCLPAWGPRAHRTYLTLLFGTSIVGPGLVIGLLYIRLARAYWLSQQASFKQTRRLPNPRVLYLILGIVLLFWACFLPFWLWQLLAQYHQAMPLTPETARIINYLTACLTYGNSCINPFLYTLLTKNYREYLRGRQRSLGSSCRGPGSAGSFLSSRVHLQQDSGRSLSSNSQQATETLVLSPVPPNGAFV
In short: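 Cloned mouse urotensin (mUR2) receptor membranes from Perkin Elmer Biosignal were immobilized in FlashPlate microplates using a proprietary coating. Each well got 19.5 μl buffer, then 0.5 μl of DMSO, reference ligand, or compound. Adding 5 μl of [125I]-Urotensin II, diluted to 5× final concentration in binding buffer, started binding. Plates were sealed with TopSeal-A and incubated 1 hour at room temperature in the dark. Wells were counted for 30 seconds each on a TopCount after a 60-second delay, and percentage inhibition was calculated.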

T1 sequence (P41143 whole entry): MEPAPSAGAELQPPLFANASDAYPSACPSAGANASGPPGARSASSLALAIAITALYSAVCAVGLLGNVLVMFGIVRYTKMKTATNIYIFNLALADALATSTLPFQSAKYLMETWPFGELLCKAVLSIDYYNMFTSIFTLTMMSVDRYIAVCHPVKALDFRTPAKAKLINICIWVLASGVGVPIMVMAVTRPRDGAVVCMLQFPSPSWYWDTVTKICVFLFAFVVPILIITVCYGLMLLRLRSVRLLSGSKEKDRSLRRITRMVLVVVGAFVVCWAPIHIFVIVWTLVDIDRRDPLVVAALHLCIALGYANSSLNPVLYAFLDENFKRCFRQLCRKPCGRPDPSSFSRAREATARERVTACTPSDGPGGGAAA
T8 sequence (P25103 whole entry): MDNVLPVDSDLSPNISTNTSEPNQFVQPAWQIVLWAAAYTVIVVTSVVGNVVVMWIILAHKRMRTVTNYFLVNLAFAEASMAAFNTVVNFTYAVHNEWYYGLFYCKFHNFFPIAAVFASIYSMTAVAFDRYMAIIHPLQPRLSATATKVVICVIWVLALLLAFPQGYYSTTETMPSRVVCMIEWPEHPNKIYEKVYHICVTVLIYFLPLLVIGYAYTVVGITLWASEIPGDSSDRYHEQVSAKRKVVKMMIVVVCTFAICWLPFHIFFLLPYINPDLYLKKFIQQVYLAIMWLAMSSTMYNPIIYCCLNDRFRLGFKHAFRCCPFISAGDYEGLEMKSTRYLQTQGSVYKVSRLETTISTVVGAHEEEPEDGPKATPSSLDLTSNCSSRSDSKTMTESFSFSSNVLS
T6 sequence (Q99705 whole entry): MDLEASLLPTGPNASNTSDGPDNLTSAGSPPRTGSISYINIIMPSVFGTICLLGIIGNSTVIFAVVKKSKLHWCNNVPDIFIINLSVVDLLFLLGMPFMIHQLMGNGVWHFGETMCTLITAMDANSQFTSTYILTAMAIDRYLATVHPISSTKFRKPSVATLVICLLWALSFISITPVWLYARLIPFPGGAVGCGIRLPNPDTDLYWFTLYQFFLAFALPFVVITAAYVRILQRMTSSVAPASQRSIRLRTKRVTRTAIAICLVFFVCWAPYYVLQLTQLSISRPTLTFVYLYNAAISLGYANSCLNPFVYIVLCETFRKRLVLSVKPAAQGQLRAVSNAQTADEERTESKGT
T2 sequence (P41145 whole entry): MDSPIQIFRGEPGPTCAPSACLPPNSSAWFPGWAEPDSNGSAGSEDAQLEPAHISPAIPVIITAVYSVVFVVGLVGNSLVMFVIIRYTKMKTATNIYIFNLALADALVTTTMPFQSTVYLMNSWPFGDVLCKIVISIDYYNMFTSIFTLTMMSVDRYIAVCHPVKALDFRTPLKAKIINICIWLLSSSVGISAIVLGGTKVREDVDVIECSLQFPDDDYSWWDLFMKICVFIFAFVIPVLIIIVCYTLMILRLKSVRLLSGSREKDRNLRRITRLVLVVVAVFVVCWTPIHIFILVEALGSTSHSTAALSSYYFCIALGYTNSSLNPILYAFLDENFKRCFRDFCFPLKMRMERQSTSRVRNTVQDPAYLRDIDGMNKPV
T10 sequence (P41146 whole entry): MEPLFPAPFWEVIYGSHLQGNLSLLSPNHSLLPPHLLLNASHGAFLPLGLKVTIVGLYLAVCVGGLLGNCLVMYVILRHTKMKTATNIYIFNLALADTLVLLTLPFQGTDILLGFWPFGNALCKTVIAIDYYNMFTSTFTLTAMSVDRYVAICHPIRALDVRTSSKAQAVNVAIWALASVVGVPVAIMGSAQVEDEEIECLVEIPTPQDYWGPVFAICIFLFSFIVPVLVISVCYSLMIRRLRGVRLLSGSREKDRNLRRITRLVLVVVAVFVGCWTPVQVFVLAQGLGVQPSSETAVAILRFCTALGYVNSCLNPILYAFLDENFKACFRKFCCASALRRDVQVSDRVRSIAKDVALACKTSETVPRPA
T4 sequence (P32245 whole entry): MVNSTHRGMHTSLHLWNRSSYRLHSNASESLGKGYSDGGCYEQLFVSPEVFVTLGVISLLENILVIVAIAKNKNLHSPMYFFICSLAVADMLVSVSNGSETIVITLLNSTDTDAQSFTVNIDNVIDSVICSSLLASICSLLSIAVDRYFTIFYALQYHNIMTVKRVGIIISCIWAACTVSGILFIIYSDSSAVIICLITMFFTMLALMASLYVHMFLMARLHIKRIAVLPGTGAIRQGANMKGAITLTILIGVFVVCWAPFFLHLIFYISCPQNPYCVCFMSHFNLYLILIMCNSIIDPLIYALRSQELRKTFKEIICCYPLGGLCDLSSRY
T3 sequence (P41968 whole entry): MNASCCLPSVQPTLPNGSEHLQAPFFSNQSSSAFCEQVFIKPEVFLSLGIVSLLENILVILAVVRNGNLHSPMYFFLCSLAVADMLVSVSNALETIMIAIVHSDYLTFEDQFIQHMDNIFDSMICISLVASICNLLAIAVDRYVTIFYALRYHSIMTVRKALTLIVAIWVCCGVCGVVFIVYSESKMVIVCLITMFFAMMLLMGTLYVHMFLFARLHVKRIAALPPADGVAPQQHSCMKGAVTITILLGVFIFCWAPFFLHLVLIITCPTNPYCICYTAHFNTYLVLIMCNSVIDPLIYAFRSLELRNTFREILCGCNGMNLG
T7 sequence (P35372 whole entry): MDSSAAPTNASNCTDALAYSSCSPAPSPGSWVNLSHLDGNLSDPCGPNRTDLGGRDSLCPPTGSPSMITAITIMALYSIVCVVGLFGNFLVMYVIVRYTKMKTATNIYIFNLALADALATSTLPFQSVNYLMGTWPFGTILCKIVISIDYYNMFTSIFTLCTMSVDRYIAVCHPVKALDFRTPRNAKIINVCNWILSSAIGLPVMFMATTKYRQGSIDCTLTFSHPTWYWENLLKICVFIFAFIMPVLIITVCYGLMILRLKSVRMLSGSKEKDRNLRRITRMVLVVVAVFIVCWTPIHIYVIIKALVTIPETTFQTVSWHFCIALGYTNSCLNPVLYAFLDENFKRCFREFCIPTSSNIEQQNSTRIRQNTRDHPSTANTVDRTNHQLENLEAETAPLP
T5 sequence (P33032 whole entry): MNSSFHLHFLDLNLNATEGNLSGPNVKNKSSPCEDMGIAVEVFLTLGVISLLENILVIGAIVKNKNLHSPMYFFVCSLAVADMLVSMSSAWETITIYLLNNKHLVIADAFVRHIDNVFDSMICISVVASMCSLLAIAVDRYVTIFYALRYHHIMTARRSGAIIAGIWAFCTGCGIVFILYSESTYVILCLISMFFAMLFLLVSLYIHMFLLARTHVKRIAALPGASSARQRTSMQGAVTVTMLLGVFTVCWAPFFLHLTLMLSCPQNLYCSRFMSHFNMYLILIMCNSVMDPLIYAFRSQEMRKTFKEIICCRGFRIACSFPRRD

Compound	A1: inhibition of radioligand binding, human δ-opioid (DOP) (Human δ-opioid (DOP))	A2: inhibition of radioligand binding, human κ-opioid (KOP) (Human κ-Opioid (KOP))	A3: inhibition of radioligand binding, human melanocortin (MC3) (Human Melanocortin (MC3))	A4: inhibition of radioligand binding, human melanocortin (MC4) (Human Melanocortin (MC4))	A5: inhibition of radioligand binding, human melanocortin (MC5) (Human melanocortin (MC5))	A8: inhibition of radioligand binding, human neurokinin (NK1) (Human neurokinin (NK1))	A9: inhibition of radioligand binding, human neuropeptide Y (NPY-Y1) [2]	A10: inhibition of radioligand binding, human opioid (ORL1) (Human opioid (ORL1))	A11: inhibition of radioligand binding, mouse urotensin (mUR2) (Mouse urotensin (mUR2))	A6: inhibition of radioligand binding, human melanin-concentrating hormone (MCH1) ([1]; [125I]-S36057)	A7: inhibition of radioligand binding, human μ-opioid (MOP) (Human μ-opioid (MOP))	other results
NCCCC(=O)NC1C(OCc2ccc(Cl)cc2)OC(COCc2ccc(Cl)cc2)C(O)C1OCc1ccc2ccccc2c1 (single isomer, unassigned) [compound 500]	− (“−” indicates less than 50% inhibition at 10 μM)	− (“−” indicates less than 50% inhibition at 10 μM)	+ (“+” indicates greater than 50% inhibition at 10 μM)	+ (“+” indicates greater than 50% inhibition at 10 μM)	+ (“+” indicates greater than 50% inhibition at 10 μM)	+ (“+” indicates greater than 50% inhibition at 10 μM)	− (“−” indicates less than 50% inhibition at 10 μM)	+ (“+” indicates greater than 50% inhibition at 10 μM)	− (“−” indicates less than 50% inhibition at 10 μM)	–	–	A6: inhibition of radioligand binding, human melanin-concentrating hormone (MCH1) ([1]; [125I]-S36057, 10 µM): + (“+” indicates greater than 50% inhibition at 10 μM); A7: inhibition of radioligand binding, human μ-opioid (MOP) (Human μ-opioid (MOP); 10 µM): + (“+” indicates greater than 50% inhibition at 10 μM)
COCC1OC(OCCc2ccccc2)C(NC(=O)CN)C(OCc2ccc3ccccc3c2)C1O (stereo not shown) [compound 225]	–	–	–	–	–	–	–	–	–	–	–	A1: inhibition of radioligand binding (Human δ-opioid (DOP); FlashPlate): − (“−” indicates less than 50% inhibition at 10 μM); A2: inhibition of radioligand binding (Human κ-Opioid (KOP); filtration): − (“−” indicates less than 50% inhibition at 10 μM); A3: inhibition of radioligand binding (Human Melanocortin (MC3); FlashPlate): − (“−” indicates less than 50% inhibition at 10 μM); A4: inhibition of radioligand binding (Human Melanocortin (MC4); FlashPlate): − (“−” indicates less than 50% inhibition at 10 μM); A5: inhibition of radioligand binding (Human melanocortin (MC5); FlashPlate): − (“−” indicates less than 50% inhibition at 10 μM); A6: inhibition of radioligand binding ([1]; [125I]-S36057, FlashPlate): − (“−” indicates less than 50% inhibition at 10 μM); A7: inhibition of radioligand binding (Human μ-opioid (MOP); FlashPlate): − (“−” indicates less than 50% inhibition at 10 μM); A8: inhibition of radioligand binding (Human neurokinin (NK1); filtration): + (“+” indicates greater than 50% inhibition at 10 μM); A9: inhibition of radioligand binding ([2]; FlashPlate): − (“−” indicates less than 50% inhibition at 10 μM); A10: inhibition of radioligand binding (Human opioid (ORL1); FlashPlate): − (“−” indicates less than 50% inhibition at 10 μM); A11: inhibition of radioligand binding (Mouse urotensin (mUR2); FlashPlate): − (“−” indicates less than 50% inhibition at 10 μM)
CSC1OC(COCc2cccc(N)c2)C(O)C(OCc2ccccc2)C1NC(=O)Cc1ccccc1 (stereo not shown) [compound 330]	− (“−” indicates less than 50% inhibition at 10 μM)	− (“−” indicates less than 50% inhibition at 10 μM)	− (“−” indicates less than 50% inhibition at 10 μM)	− (“−” indicates less than 50% inhibition at 10 μM)	–	+ (“+” indicates greater than 50% inhibition at 10 μM)	− (“−” indicates less than 50% inhibition at 10 μM)	− (“−” indicates less than 50% inhibition at 10 μM)	− (“−” indicates less than 50% inhibition at 10 μM)	− (“−” indicates less than 50% inhibition at 10 μM)	− (“−” indicates less than 50% inhibition at 10 μM)	A5: inhibition of radioligand binding, human melanocortin (MC5) (Human melanocortin (MC5); 10 µM): − (“−” indicates less than 50% inhibition at 10 μM)
NCCC(=O)NC1C(OCc2ccc(Cl)cc2)OC(COCc2ccc3ccccc3c2)C(O)C1OCc1ccccc1 (single isomer, unassigned) [compound 483]	− (“−” indicates less than 50% inhibition at 10 μM)	− (“−” indicates less than 50% inhibition at 10 μM)	− (“−” indicates less than 50% inhibition at 10 μM)	− (“−” indicates less than 50% inhibition at 10 μM)	+ (“+” indicates greater than 50% inhibition at 10 μM)	+ (“+” indicates greater than 50% inhibition at 10 μM)	− (“−” indicates less than 50% inhibition at 10 μM)	− (“−” indicates less than 50% inhibition at 10 μM)	− (“−” indicates less than 50% inhibition at 10 μM)	− (“−” indicates less than 50% inhibition at 10 μM)	− (“−” indicates less than 50% inhibition at 10 μM)	–
CO[C@H]1[C@H](O)[C@@H](COCc2ccc3ccccc3c2)OC(OCCc2ccccc2)[C@@H]1NC(=O)CCCN (stereo partly shown) [compound 115]	–	–	–	–	–	–	–	–	–	–	–	A1 radioligand binding, percentage inhibition (Human δ-opioid (DOP)): − (“−” indicates less than 50% inhibition at 10 μM); A2 radioligand binding, percentage inhibition (Human κ-Opioid (KOP)): − (“−” indicates less than 50% inhibition at 10 μM); A3 radioligand binding, percentage inhibition (Human Melanocortin (MC3)): − (“−” indicates less than 50% inhibition at 10 μM); A4 radioligand binding, percentage inhibition (Human Melanocortin (MC4)): − (“−” indicates less than 50% inhibition at 10 μM); A5 radioligand binding, percentage inhibition (Human melanocortin (MC5)): − (“−” indicates less than 50% inhibition at 10 μM); A6 radioligand binding, percentage inhibition ([1]; [125I]-S36057): − (“−” indicates less than 50% inhibition at 10 μM); A7 radioligand binding, percentage inhibition (Human μ-opioid (MOP)): − (“−” indicates less than 50% inhibition at 10 μM); A8 radioligand binding, percentage inhibition (Human neurokinin (NK1)): + (“+” indicates greater than 50% inhibition at 10 μM); A9 radioligand binding, percentage inhibition [2]: − (“−” indicates less than 50% inhibition at 10 μM); A10 radioligand binding, percentage inhibition (Human opioid (ORL1)): − (“−” indicates less than 50% inhibition at 10 μM); A11 radioligand binding, percentage inhibition (Mouse urotensin (mUR2)): − (“−” indicates less than 50% inhibition at 10 μM)
